Experimental data from paper PMC4526861, “Inhibition of protein kinase C by isojacareubin suppresses hepatocellular carcinoma metastasis and induces apoptosis in vitro and in vivo” (Scientific Reports, 2015).

Assays:
PKC = PKC activity assay (PepTag non-radioactive, HepG2 lysates); type: biochemical, human; conditions: 3 h
Experimental: The activity of PKC in HepG2 cells was assessed 3 h after the addition of compound 7 or ISJ by measuring the phosphorylation of a PKC-specific target peptide. Compared to the basal control (in the absence of any compound), PKC activity was inhibited by compound 7 and ISJ.
Figure 3 Effects of compound 7 and ISJ on PKC activity in HepG2 cells. The proteins from lysed HepG2 cells were prepared and measured for their ability to phosphorylate a PKC-specific peptide substrate (PLSRTLSVAAK) in a non-radioactive assay. (a) Lanes 1 and 2 show the negative (water only) and positive controls (with 20 ng purified PKC). Supernatants from HepG2 cells were subjected to the PKC activity assay in the absence (basal control, lane 3) or presence (lanes 4–7) of the compounds. Compound 7 (lanes 4 and 5) and ISJ (lanes 6 and 7) were added separately at 10 and 5 μM. (b) Quantification of (a); *P < 0.05 versus the basal control. Data are shown as the mean ± SD of three independent experiments.
The PKC activity assay was carried out as previously reported, according to the instructions of the PepTag non-radioactive PKC assay kit (Promega)[60]. The bands were photographed using the Syngene GBOX-iCHEMI-XR system, and the phosphorylated bands were cut out for quantification measurement at 570 nm.

HepG2 xenografts = test: Antitumor activity in vivo, HepG2 xenograft; design: species or system BALB/c-nu nude mice; conditions: 5 mg/kg, tail vein injection every other day for two weeks
Experimental: Four-week-old male BALB/c-nu nude mice (15–20 g) were obtained from the Shanghai SLAC Laboratory Animal Co., Ltd. (Shanghai, China). The animals were maintained under specific pathogen-free conditions with food and water supplied ad libitum in the Laboratory Animal Center of the Second Military Medical University. All animal experiments were carried out in accordance with the Guide for the Care and Use of Laboratory Animals of the National Institutes of Health and were approved by the Committee on the Ethics of Animal Experiments of the Second Military Medical University, China.
HepG2 cells were harvested and resuspended in PBS. A total of 5 × 10^6 cells were subcutaneously injected into the right flank. Tumor volume was calculated using the following formula: V = (L × W^2)/2, where L is the length and W is the width of the tumor nodules measured with vernier calipers. Once the volume of the tumors reached 75–100 mm^3, the mice were randomly divided into three groups (n = 5). The mice were treated every other day for two weeks with tail vein injections of either vehicle (5% ethanol and 2.5% polyethylene glycol in saline), compound 7, or ISJ (5 mg/kg in the vehicle). Body weights were measured before each drug injection. After the 15th day, the mice were euthanized, and the tumors were isolated, weighed and photographed.

PKCμ = target: T1, PKCμ (Homo sapiens, UniProt Q15139); test: Cell-based pull-down assay, PKCμ; type: binding; conditions: HepG2 lysates
T1 construct: Endogenous cPKC (PKCα) and nPKC (PKCδ, PKCε and PKCμ) in HepG2 lysates were pulled down; endogenous in cells; host or cells: HepG2
T1 sequence (Q15139 1-912): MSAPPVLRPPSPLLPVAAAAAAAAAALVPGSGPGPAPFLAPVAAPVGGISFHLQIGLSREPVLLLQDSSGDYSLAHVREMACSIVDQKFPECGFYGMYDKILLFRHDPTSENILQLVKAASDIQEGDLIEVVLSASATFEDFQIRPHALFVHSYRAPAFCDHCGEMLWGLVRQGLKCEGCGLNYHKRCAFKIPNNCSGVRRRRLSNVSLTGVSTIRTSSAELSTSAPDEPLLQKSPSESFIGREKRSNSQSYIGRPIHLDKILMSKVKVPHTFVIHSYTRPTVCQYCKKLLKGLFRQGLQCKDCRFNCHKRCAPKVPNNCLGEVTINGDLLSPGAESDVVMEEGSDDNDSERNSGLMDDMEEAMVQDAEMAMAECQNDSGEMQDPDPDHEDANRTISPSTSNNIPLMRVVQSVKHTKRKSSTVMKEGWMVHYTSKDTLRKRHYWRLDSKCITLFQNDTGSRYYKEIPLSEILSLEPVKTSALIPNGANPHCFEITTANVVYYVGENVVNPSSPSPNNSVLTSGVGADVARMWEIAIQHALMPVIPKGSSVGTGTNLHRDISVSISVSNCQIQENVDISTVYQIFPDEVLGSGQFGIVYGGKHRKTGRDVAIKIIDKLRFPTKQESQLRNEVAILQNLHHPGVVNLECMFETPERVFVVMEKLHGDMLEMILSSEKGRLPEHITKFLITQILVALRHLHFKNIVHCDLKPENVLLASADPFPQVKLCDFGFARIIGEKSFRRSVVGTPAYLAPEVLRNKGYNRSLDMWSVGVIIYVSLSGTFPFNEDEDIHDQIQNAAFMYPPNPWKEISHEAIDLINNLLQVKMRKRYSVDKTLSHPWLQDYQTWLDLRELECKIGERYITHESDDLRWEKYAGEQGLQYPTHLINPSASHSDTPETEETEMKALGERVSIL
Experimental: To identify whether ISJ and compound 7 target PKC in cells, we performed pull-down experiments using ISJ- and compound 7-coupled Sepharose beads with HepG2 cell lysates. Endogenous cPKC (PKCα) and nPKC (PKCδ, PKCε and PKCμ) in HepG2 lysates were pulled down by ISJ-coupled CNBr-activated Sepharose 4B beads (Fig. 5a).
The control beads were prepared by incubating the beads with DMSO. Proteins (500 μg) from lysed HepG2 cells were mixed with either the control beads, compound 7-coupled beads, or ISJ-coupled beads (100 μL) in reaction buffer [50 mM Tris (pH 7.5), 5 mM EDTA, 150 mM NaCl, 1 mM DTT, 0.01% NP-40, 2 μg/mL BSA, 1 mM PMSF, 1% protease inhibitor mixture]. After incubation with gentle rocking overnight at 4 °C, the beads were washed 5 times with washing buffer [50 mM Tris (pH 7.5), 5 mM EDTA, 150 mM NaCl, 1 mM DTT, 0.01% NP-40, 1 mM PMSF], and binding was visualized by western blotting.

QSG-7701 hepatocytes = test: Cell proliferation assay (CCK-8), QSG-7701 hepatocytes; type: cell-based, human; conditions: nonmalignant hepatocytes; mean ± SD
Experimental: The human HCC cell lines QGY-7703, SMMC-7721 and HepG2 and the liver cell line QSG-7701 were supplied by the Cell Resource Center, Institute of Life Sciences, Chinese Academy of Medical Science. QGY-7703, SMMC-7721 and QSG-7701 cells were cultured in 1640 medium (Gibco), and HepG2 cells were cultured in DMEM medium (Gibco) at 37 °C in moist air supplemented with 5% CO2. All media were supplemented with 10% fetal bovine serum (FBS) and 100 Units/mL of penicillin/streptomycin.
The cell viability assay was performed as previously reported using a Cell Counting Kit-8 (CCK-8; Dojindo, Kumamoto, Japan)[33][34]. The relative cell viability was presented as % inhibition and calculated using the following formula: […]

Isojacareubin [ISJ]
inhibition of PKC activity compared to the basal control (PKC; 5 μM): 52.3% | inhibition of PKC activity compared to the basal control (PKC; 10 μM): 77.7% | reduction of tumor weight compared to controls (HepG2 xenografts): 74.1% | pull-down of endogenous PKCμ by compound-coupled Sepharose 4B beads (PKCμ): pulled down | IC50 (QSG-7701 hepatocytes): 47.67 ± 0.08 µM
